pIC50: −log10 of the molar value.
Assays:
[1] = biological target: Tyrosine-protein kinase JAK1 (Homo sapiens, UniProt P23458); assay: JAK1 Assay
[2] = biological target: T1, Phosphatidylinositol 4,5-bisphosphate 3-kinase catalytic subunit delta isoform (Homo sapiens, UniProt O00329); assay: PI3K Delta Assay
T1 sequence (O00329 whole entry): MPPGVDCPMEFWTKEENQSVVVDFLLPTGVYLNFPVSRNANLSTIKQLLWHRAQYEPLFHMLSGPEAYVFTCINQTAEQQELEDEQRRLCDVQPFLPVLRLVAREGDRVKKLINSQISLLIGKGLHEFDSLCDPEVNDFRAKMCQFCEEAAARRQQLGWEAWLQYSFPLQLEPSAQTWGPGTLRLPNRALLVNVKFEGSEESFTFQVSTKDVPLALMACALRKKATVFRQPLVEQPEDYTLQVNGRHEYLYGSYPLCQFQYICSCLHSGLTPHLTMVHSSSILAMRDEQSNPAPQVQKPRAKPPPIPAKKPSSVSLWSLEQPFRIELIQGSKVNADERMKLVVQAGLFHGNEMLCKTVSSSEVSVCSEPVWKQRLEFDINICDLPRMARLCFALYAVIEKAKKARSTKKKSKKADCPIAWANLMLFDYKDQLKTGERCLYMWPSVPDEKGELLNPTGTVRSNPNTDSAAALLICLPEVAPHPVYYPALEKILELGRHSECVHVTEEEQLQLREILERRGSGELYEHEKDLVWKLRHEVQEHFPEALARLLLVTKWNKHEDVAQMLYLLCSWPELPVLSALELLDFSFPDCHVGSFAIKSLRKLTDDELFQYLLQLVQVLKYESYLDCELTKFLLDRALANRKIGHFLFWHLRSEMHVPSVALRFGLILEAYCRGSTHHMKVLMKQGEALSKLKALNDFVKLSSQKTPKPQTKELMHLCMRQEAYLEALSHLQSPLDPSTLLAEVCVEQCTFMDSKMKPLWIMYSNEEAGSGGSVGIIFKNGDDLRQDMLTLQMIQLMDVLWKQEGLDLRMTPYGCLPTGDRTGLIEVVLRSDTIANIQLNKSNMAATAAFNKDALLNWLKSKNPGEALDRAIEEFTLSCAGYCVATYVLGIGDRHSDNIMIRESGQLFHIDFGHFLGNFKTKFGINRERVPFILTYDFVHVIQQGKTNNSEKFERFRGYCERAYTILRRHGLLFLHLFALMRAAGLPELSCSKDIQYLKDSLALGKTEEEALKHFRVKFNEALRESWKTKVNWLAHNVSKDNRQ
Excerpt: Selectivity can be measured by methods routine in the art. In some embodiments, selectivity can be tested at the Km ATP concentration of each enzyme. In some embodiments, the selectivity of compounds described herein can be determined by cellular assays associated with particular PI3K kinase activity.

Sequence of Tyrosine-protein kinase JAK1 (P23458 whole entry, canonical isoform): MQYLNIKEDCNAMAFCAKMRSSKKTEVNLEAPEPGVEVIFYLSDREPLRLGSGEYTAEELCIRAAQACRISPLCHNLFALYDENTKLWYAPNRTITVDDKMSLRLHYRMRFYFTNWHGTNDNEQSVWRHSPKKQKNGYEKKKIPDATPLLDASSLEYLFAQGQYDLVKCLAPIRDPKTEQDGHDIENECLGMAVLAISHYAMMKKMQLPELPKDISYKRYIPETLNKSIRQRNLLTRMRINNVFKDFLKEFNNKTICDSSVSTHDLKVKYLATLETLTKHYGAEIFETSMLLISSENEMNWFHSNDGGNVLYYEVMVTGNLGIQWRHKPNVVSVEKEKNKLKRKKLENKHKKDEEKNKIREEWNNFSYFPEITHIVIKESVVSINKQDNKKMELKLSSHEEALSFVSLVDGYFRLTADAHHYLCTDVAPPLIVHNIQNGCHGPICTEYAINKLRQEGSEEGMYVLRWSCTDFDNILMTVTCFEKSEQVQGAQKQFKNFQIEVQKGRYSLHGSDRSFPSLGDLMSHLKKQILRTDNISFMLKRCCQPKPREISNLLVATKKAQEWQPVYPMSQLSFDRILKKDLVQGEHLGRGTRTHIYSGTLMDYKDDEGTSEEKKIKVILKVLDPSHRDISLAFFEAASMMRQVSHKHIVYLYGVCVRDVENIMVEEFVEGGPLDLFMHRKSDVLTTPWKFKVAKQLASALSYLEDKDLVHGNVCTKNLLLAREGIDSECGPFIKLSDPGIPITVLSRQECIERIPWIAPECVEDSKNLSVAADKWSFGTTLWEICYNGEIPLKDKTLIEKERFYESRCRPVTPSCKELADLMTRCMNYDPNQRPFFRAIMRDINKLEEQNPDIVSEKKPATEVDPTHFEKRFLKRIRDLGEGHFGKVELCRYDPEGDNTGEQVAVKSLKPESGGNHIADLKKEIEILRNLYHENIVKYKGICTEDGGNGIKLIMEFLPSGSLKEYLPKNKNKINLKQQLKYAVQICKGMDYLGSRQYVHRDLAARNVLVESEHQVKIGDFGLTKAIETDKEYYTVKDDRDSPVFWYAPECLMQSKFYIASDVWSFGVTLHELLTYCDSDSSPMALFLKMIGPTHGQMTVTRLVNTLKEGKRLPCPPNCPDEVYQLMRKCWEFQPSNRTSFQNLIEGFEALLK

Row | pIC50 [1] | Compound | pIC50 [2]
1 | > 8.00 | N#CCC(CN1CCN(C(=O)c2ccc(C#N)cc2F)CC1)n1cc(-c2ncnc3[nH]ccc23)cn1 (configuration not stated) [4-[(4-{3-cyano-2-[4-(7H-pyrrolo[2,3-d]pyrimidin-4-yl)-1H-pyrazol-1-yl]propyl}piperazin-1-yl)carbonyl]-3-fluorobenzonitrile] | –
2 | – | CCOc1c(C(C)n2nc(C)c3c(N)ncnc32)cc(Cl)c(F)c1C1CNC(=O)C1 (configuration not stated) [4-{3-[1-(4-amino-3-methyl-1H-pyrazolo[3,4 d]pyrimidin-1-yl)ethyl]-5-chloro-2-ethoxy-6-fluorophenyl}pyrrolidin-2-one] | 6.90

Reference: BindingDB's records for patent US9708333 (Incyte Corporation, 2017)
